Experimental data as given in PMC5303825, “The ancient CYP716 family is a major contributor to the diversification of eudicot triterpenoid biosynthesis” (Nature Communications, 2017).

Tests used:
Format in all cases: cell-based
[1] = target: T1, CYP716A113v1 (Aquilegia coerulea, UniProt A0A1I9Q601); assay: GC-MS of products in spent medium of engineered yeast; settings: co-expressed SlCAS and MTR1; putative hydroxy-cycloartenol product
T1 construct: full-length ORF from cDNA, expressed in Saccharomyces cerevisiae with tomato SlCAS and M. truncatula reductase MTR1
T1 sequence (A0A1I9Q601 1-485): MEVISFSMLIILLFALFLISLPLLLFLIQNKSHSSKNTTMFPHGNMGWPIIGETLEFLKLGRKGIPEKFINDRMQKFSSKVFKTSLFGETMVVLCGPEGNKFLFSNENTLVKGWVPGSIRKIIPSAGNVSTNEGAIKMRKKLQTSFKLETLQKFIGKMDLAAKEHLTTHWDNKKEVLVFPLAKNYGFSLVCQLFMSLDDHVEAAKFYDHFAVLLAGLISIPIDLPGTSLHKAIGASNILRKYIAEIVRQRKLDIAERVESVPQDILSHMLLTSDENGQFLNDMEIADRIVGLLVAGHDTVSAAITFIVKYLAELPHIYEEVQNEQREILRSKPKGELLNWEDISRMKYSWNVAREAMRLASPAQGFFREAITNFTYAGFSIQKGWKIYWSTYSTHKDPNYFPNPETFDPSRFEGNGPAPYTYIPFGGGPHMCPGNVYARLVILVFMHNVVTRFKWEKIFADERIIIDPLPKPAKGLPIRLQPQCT

[2] = target: T2, CYP716E41 (Centella asiatica, UniProt A0A1I9Q5Y6); assay: as above; settings: co-expressed GgBAS, CYP716A83 and MTR1; putative product 6β-hydroxy oleanolic acid
T2 construct: full-length ORF from cDNA library, expressed in Saccharomyces cerevisiae with GgBAS, CYP716A83 and M. truncatula reductase MTR1
T2 sequence (A0A1I9Q5Y6 1-477): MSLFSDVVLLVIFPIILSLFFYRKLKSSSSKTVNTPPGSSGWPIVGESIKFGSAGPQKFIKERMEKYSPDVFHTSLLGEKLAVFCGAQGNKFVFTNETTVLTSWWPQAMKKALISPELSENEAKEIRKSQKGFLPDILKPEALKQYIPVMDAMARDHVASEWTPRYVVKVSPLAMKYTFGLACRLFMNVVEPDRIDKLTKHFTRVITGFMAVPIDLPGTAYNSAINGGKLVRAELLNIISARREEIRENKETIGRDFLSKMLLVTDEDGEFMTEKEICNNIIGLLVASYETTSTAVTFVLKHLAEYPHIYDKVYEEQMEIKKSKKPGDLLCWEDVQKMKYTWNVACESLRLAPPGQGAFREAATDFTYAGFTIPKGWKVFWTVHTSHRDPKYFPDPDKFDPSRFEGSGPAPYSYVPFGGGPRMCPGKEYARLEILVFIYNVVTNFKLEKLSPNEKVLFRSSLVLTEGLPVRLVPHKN

[3] = target: T3, CYP716C11 (Centella asiatica, UniProt A0A1I9Q5Y7); assay: as above; settings: co-expressed GgBAS, CYP716A83 and MTR1; product maslinic acid
T3 construct: gene MAA45; full-length ORF from cDNA library, expressed in Saccharomyces cerevisiae with GgBAS (or CaDDS), CYP716A83 and M. truncatula reductase MTR1; T2A polyprotein CYP716A83-CYP716C11
T3 sequence (A0A1I9Q5Y7 1-475): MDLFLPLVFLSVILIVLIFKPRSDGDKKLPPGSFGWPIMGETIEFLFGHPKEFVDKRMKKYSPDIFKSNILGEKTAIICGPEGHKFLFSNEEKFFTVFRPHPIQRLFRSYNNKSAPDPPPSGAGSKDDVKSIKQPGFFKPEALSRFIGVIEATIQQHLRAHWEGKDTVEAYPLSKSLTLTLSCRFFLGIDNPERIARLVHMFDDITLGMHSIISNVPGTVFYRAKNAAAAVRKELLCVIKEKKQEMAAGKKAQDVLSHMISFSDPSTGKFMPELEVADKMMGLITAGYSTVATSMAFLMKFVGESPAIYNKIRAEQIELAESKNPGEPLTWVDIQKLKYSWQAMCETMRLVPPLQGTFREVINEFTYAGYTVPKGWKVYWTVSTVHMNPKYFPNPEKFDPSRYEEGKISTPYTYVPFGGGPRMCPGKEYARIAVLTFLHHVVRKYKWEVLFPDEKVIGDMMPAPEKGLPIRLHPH

[4] = target: T4, CYP716A83 (Centella asiatica, UniProt A0A1I9Q5Y4); assay: as above
T4 construct: full-length ORF from cDNA library, expressed in Saccharomyces cerevisiae with GgBAS (or CaDDS) and M. truncatula reductase MTR1; T2A polyprotein with CYP716C11 in some strains

[5] = target: T5, CYP716A140 (Platycodon grandiflorus, UniProt A0A1I9Q5Y8); assay: as above; settings: co-expressed GgBAS and MTR1; products of C-28 oxidation: erythrodiol, oleanolic acid
T5 construct: full-length ORF (RACE), expressed in Saccharomyces cerevisiae with GgBAS and M. truncatula reductase MTR1
T5 sequence (A0A1I9Q5Y8 1-479): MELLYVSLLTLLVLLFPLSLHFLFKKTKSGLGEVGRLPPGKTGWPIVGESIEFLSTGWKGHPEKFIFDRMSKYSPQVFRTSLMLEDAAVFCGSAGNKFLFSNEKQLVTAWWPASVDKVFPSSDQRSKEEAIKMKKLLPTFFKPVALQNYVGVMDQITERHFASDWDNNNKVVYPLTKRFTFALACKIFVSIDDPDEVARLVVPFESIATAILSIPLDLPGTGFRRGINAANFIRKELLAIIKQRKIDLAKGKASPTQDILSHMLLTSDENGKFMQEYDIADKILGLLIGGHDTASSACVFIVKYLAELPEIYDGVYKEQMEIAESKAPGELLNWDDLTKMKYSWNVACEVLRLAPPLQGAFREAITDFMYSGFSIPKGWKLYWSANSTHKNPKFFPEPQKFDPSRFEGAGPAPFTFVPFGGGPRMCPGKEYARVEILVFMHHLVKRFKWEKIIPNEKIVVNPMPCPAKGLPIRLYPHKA

[6] = target: T6, CYP716A110 (Aquilegia coerulea, UniProt A0A1I9Q5Z9); assay: as above; settings: co-expressed GgBAS and MTR1; products erythrodiol, oleanolic acid
T6 construct: full-length ORF from cDNA, expressed in Saccharomyces cerevisiae with GgBAS and M. truncatula reductase MTR1
T6 sequence (A0A1I9Q5Z9 1-480): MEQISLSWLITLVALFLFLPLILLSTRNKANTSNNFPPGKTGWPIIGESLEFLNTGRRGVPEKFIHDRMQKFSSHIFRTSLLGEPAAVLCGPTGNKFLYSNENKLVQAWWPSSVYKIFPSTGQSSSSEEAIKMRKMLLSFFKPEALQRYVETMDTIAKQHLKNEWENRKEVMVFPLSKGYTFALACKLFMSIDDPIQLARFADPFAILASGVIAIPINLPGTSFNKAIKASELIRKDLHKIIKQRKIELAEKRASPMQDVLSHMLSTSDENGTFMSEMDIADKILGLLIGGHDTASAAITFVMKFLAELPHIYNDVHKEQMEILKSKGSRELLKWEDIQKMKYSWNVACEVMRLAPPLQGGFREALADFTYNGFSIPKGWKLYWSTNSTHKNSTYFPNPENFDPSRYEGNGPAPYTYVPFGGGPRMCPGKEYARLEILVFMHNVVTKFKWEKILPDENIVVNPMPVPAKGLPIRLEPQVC

[7] = target: T7, CYP716A141 (Platycodon grandiflorus, UniProt A0A1I9Q5Z0); assay: GC-MS of engineered yeast medium; product NMR; settings: co-expressed GgBAS and MTR1; product 16β-hydroxy β-amyrin (minor erythrodiol, oleanolic acid)
T7 construct: full-length ORF (RACE), expressed in Saccharomyces cerevisiae with GgBAS and M. truncatula reductase MTR1; b33 once misprints C. asiatica
T7 sequence (A0A1I9Q5Z0 1-481): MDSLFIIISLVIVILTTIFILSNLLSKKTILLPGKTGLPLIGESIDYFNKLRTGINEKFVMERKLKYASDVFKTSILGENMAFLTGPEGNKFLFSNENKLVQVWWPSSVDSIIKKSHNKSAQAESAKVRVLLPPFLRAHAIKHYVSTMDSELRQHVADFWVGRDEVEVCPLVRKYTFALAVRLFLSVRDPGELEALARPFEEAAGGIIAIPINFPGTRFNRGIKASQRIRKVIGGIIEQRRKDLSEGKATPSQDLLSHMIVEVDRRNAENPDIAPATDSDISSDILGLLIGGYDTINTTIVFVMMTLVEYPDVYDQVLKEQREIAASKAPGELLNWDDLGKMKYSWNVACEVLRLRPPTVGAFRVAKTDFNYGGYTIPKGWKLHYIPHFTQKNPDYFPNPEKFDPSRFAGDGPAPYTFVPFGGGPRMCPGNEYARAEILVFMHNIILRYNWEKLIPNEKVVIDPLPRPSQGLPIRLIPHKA

[8] = target: T8, CYP716A86 (Centella asiatica, UniProt A0A1I9Q5Y3); assay: GC-MS of products in spent medium of engineered yeast; settings: co-expressed GgBAS and MTR1; products erythrodiol, oleanolic aldehyde, oleanolic acid
T8 construct: full-length ORF from cDNA library, expressed in Saccharomyces cerevisiae with GgBAS and M. truncatula reductase MTR1
T8 sequence (A0A1I9Q5Y3 1-482): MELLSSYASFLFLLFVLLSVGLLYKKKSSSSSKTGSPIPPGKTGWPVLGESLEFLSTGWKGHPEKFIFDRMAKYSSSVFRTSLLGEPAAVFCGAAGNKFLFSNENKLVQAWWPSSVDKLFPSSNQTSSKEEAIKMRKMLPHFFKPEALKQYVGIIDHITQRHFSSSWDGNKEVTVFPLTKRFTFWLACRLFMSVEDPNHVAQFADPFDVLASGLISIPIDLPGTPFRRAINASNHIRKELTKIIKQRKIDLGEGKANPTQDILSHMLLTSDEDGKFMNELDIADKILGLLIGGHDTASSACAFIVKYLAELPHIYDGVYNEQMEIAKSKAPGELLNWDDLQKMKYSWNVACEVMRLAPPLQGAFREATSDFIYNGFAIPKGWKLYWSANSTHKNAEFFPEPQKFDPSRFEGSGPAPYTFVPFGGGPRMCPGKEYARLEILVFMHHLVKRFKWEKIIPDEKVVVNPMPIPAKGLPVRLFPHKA

T4 sequence (A0A1I9Q5Y4 entry or part of it): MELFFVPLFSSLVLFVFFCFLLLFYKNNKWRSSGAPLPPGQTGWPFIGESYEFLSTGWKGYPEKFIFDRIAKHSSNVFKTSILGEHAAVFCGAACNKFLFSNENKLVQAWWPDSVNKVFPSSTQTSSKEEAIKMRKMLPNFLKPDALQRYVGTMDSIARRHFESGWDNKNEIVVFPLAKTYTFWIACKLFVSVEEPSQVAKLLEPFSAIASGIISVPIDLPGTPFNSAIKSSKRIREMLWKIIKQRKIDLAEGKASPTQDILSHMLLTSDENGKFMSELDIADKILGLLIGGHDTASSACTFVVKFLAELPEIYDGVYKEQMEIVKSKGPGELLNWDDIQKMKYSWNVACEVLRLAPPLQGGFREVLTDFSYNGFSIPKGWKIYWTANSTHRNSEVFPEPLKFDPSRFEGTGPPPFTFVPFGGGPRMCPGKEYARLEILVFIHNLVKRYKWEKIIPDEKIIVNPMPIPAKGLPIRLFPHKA

For CC(C)=CCC[C@@H](C)[C@H]1CC[C@@]2(C)[C@@H]3CC[C@H]4C(C)(C)[C@@H](O)CC[C@@]45C[C@@]35CC[C@]12C [cycloartenol], the “GC-MS of products in spent medium of engineered yeast” value (“GC-MS of products” below) [1] was “dependent on both SlCAS and CYP716A113v1”.

With CC1(C)CC[C@]2(C(=O)O)CC[C@]3(C)C(=CC[C@@H]4[C@@]5(C)CC[C@H](O)C(C)(C)[C@@H]5CC[C@]43C)[C@@H]2C1 [oleanolic acid] the “GC-MS of products” value [2] was “CYP716C11 and CYP716E41 converted oleanolic acid to maslinic acid” and the “GC-MS of products” value [3] was “CYP716C11 and CYP716E41 converted oleanolic acid to maslinic acid”.

In the case of C[C@H]1[C@H](C)CC[C@]2(C)CC[C@]3(C)C(=CC[C@@H]4[C@@]5(C)CC[C@H](O)C(C)(C)[C@@H]5CC[C@]43C)[C@H]12 [α-amyrin], the “GC-MS of products” value ([4]; co-expressed CaDDS and MTR1 (with CYP716E41 or CYP716C11), product ursolic acid) is reported as “CYP716A83, CYP716C11 and CYP716E41 can function on both oleanane and ursane backbones”.

For CC1(C)CC[C@]2(C)CC[C@]3(C)C(=CC[C@@H]4[C@@]5(C)CC[C@H](O)C(C)(C)[C@@H]5CC[C@]43C)[C@@H]2C1 [β-amyrin], the “GC-MS of products” value [5] was “CYP716A140-expressing yeast showed three new peaks corresponding to C-28 oxidation”, the “GC-MS of products” value [6] was “CYP716A110 revealed new peaks corresponding to the erythrodiol and oleanolic acid standards” and the “GC-MS of engineered yeast medium; product NMR” value [7] was “CYP716A141 appears to be a multifunctional β-amyrin oxidase”. For the same molecule, the “GC-MS of products” value ([4]; co-expressed GgBAS and MTR1, in vivo, products erythrodiol, oleanolic aldehyde, oleanolic acid) was “CYP716A83 and CYP716A86 catalyse the three-step oxidation of β-amyrin at the C-28 position” and the “GC-MS of products” value [8] was “CYP716A83 and CYP716A86 catalyse the three-step oxidation of β-amyrin at the C-28 position”.
